# Measured values taken from patent publication US20070105961A1, “1-Amino-alkylcyclohexanes as 5-HT3 and neuronal nicotinic receptor antagonists” (MERZ PHARMA GMBH & CO. KGAA, priority 2000, published 2007).
# Like-named read-outs stand apart in the source and are kept apart here.
# Experiments:
# [1] = molecular target: T1, NMDA receptors; conditions: at −70 mV, cultured rat hippocampal neurones, cited from earlier work
# T1 construct: PC NMDA (antagonism of NMDA-induced inward currents); other: at −70 mV, cultured rat hippocampal neurones; PC (PC NMDA, antagonism of NMDA-induced inward currents)
# [2] = molecular target: T2, 5-HT3 receptors (Mus musculus, UniProt P23979); assay: patch clamp, antagonism of serotonin-induced inward currents in N1E-115 cells; type: cell-based; conditions: serotonin (10 μM) applied for 2 secs, read-out: 5HT3 IC50 against steady-state responses
# T2 construct: against “steady-state” responses of N1E-115 cells to serotonin (10 μM); host or cells: N1E-115 cells
# T2 sequence (P23979 24-489): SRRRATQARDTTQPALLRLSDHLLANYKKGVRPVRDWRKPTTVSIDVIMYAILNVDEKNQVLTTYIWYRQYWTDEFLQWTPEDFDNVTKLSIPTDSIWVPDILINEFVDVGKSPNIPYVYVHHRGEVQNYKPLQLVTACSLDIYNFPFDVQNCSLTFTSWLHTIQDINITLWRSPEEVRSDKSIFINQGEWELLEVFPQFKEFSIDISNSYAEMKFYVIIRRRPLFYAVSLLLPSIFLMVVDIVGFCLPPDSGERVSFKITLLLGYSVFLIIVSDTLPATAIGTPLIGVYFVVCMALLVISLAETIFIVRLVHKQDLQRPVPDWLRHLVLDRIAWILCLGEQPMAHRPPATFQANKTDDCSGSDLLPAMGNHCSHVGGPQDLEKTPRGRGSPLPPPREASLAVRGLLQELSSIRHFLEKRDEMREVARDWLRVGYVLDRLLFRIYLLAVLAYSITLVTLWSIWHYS
# Experimental: N1E-115 cells were purchased from the European collection of cell cultures (ECACC, Salisbury, UK) and stored at −80° C. until further use. The cells were plated at a density of 100,000 cells cm^−2 onto plastic Petri dishes (Falcon) and were nourished with NaHCO3/HEPES-buffered minimum essential medium (MEM) supplemented with 15% foetal calf serum (Gibco) and incubated at 37° C. with 5% CO2 at 95% humidity. The medium was exchanged completely daily. Once every three days, cells were re-seeded onto fresh Petri dishes following treatment with trypsin-EDTA (1% in PBS), resuspension in MEM, and centrifugation at 1000 for 4 mins.
# Patch clamp recordings were made from lifted cells, 2-3 days following seeding with polished glass electrodes (2-3 MΩ) in the whole cell mode at room temperature (20-22° C.) with an EPC-7 amplifier (List). Test substances were applied as for hippocampal cells. The contents of the intracellular solution were as follows (mM): CsCl (130), HEPES (10), EGTA (10), MgCl2 (2), CaCl2 (2), K-ATP (2), Tris-GTP (0.2), D-Glucose (10); pH was adjusted to 7.3 with CsOH or HCl. The extracellular solutions had the following basic composition (mM): NaCl (124), KCl (2.8), HEPES (10), pH 7.3 with NaOH or HCl.
# Only results from stable cells were accepted for inclusion in the final analysis, i.e., showing at least 75% recovery of responses to agonist (serotonin or Ach) following removal of the antagonist tested. Despite this, recovery from drug actions wasn't always 100% because of rundown in some cells (<=10% over 10 mins). When present, this was always compensated by basing the % antagonism at each concentration on both control and recovery and assuming a linear time course for this rundown. All antagonists were assessed at steady-state blockade with 3 to 6 concentrations on at least 5 cells. Equilibrium blockade was achieved within 2 to 5 agonist applications, depending on antagonist concentration.
# FIG. 1A and FIG. 1B show concentration-dependence of the blockade of 5HT3 receptors by MRZ 2/633 in cultured N1E-115 cells. Serotonin (10 μM) was applied for 2 seconds every 30 seconds in the continuous presence of various concentrations of MRZ 2/633 (1-10 μM).
# B: Peak and steady-state (plateau) serotonin current responses were normalized to control levels and plotted as means (±SEM) against MRZ 2/633 concentration (n=8). Estimation of IC50s and curve fitting were made according to the 4 parameter logistic equation (GraFit, Erithacus Software).
# [3] = molecular target: T3, NMDA receptors; conditions: rat cortical membranes, cited from earlier work
# T3 construct: other: rat cortical membranes
# [4] = molecular target: T4, α7 neuronal nicotinic receptors (Rattus norvegicus, UniProt Q05941); assay: patch clamp, antagonism of Ach-induced inward currents in cultured hippocampal neurones; type: cell-based
# T4 construct: against peak responses of cultured hippocampal neurones to Ach (1 mM) applied for 2 secs; endogenous in cells; host or cells: cultured rat embryonic hippocampal neurones
# [5] = Table 2, read-out: PC NMDA (antagonism of NMDA-induced inward currents)
# [6] = read-out: [3H]MK- (displacement of [3H]MK-801 binding), Table 2
# [7] = cultured hippocampal neurones, Ach (1 mM) applied for 2 secs, read-out: PC Ach IC50 against peak responses
# [8] = Table 3, read-out: PC (PC NMDA, antagonism of NMDA-induced inward currents)
# [9] = read-out: [3H]MK (displacement of [3H]MK-801 binding), Table 3
# T4 sequence (Q05941 23-502): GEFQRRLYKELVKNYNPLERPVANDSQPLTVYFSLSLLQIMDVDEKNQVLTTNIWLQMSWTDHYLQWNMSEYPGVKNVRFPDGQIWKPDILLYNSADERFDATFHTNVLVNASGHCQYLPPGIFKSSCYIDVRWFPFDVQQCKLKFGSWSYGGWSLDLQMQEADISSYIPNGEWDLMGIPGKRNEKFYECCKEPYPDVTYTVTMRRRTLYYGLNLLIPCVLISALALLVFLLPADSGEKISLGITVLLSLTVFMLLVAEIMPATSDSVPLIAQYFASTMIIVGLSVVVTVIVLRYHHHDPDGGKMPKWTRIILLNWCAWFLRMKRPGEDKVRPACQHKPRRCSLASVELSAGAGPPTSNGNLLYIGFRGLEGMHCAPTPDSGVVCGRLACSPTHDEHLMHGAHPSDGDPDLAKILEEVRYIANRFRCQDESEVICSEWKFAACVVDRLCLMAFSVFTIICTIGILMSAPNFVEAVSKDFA
Structure (SMILES),"IC50 [4, 7] [µM]",fold more effective as α7 neuronal nicotinic antagonist than as NMDA receptor antagonist ([4]; Table 3 and FIG. 4) [fold],"IC50 [1, 5] [µM]",IC50 [2] [µM],"Ki [3, 6] [µM]","IC50 [1, 8] [µM]","Ki [3, 9] [µM]",IC50 [4] [µM],α7 neuronal nicotinic antagonism (in words) ([4]; hippocampal neurones)
"CC[C@@H]1CC(C)(C)C[C@](C)(N)C1 (relative stereo) [MRZ 2/632, 1-Amino-1,3,3-trimethyl-5(cis)ethylcyclohexane]",–,–,6.4,2.4,2.8,–,–,–,–
"C[C@@H]1CC(C)(C)C[C@@](C)(N)C1 (relative stereo) [MRZ 2/607, 1-Amino-1,3,3,5(trans)-tetramethylcyclohexane (axial amino group)]",–,–,13.8,22.3,7.7,–,–,–,–
"CCCC1(N)CC(C)(C)CC(C)(C)C1 [MRZ 2/601, 1-Amino-1-propyl-3,3,5,5-tetramethylcyclohexane]",–,–,10,1.3,7.7,–,–,–,–
"CC[C@H]1CCC[C@](C)(N)C1 (relative stereo) [MRZ 2/629, 1-Amino-1-methyl-3(trans)ethylcyclohexane]",2.05,–,–,–,–,219,46.7,–,–
"CC1(C)CCCC(C)(N)C1 (centres unmarked) [MRZ 2/621, 1-Amino-1,3,3-trimethylcyclohexane]",–,–,92.4,20.3,30.6,92.4,30.6,0.65,–
"CC[C@@H]1CC(C)(C)C[C@@](C)(N)C1 (relative stereo) [MRZ 2/633, 1-Amino-1,3,3-trimethyl-5(trans)ethylcyclohexane]",–,–,13.9,7.7,4.7,–,–,–,–
"C[C@H]1CCC[C@](C)(N)C1 (relative stereo) [MRZ 2/625, 1-Amino-1,3(trans)-dimethylcyclohexane]",3.29,–,–,–,–,245,49,–,–
"CC1(N)CCCCC1 [MRZ 2/641, 1-Amino-1-methylcyclohexane]",2.4,–,–,–,–,> 100,136,–,–
"CN(C)C1(C)CC(C)(C)CC(C)(C)C1 [MRZ 2/642, N,N-dimethyl-1-amino-1,3,3,5,5-pentamethylcyclohexane]",–,–,42.5,35.5,10.7,42.5,10.7,1,–
"CCC[C@H]1CCC[C@](C)(N)C1 (relative stereo) [MRZ 2/627, 1-Amino-1-methyl-3(trans)propylcyclohexane]",2.6,–,–,–,–,150,67.3,–,–
"CNC1(C)CC(C)(C)CC(C)(C)C1 [MRZ 2/640, N-methyl-1-Amino-1,3,3,5.5-pentamethylcyclohexane]",–,–,14.6,10.8,4.8,–,–,–,–

# More lines, main results first:
"IC50 [4, 7] [µM]",fold more effective as α7 neuronal nicotinic antagonist than as NMDA receptor antagonist ([4]; Table 3 and FIG. 4) [fold],Structure (SMILES),"IC50 [1, 5] [µM]",IC50 [2] [µM],"Ki [3, 6] [µM]","IC50 [1, 8] [µM]","Ki [3, 9] [µM]",IC50 [4] [µM],α7 neuronal nicotinic antagonism (in words) ([4]; hippocampal neurones)
30,–,"CC1(C)CC(C)(C)CC(C)(N)C1 [MRZ 2/579, 1-Amino-1,3,3,5,5-pentamethylcyclohexane]",1.3,1.7,1.4,1.3,1.44,–,–
1.16,–,"CCCC1(C)CCCC(C)(N)C1 (mixture of isomers) [MRZ 2/617, 1-Amino-1,3-dimethyl-3-propylcyclohexane (mixture of diastereomers)]",–,–,–,63.9,36.1,–,–
2.21,–,"CCC1(C)CC(C)(C)CC(C)(N)C1 (mixture of isomers) [MRZ 2/615, 1-Amino-1,3,5,5-tetramethyl-3-ethylcyclohexane (mixture of diastereomers)]",1.3,2.5,2.29,2.9,2.29,–,–
0.65,–,"CCCC1(C)CC(C)CC(C)(N)C1 (stereo not drawn) [MRZ 2/618, 1-Amino-1,3(trans),5(trans)-trimethyl-3(cis)-propylcyclohexane]",–,–,–,57.5,22.8,–,–
2.44,–,"CCC1(C)CCCC(C)(N)C1 (centres unmarked) [MRZ 2/620, 1-Amino-1,3-dimethyl-3-ethylcyclohexane]",–,–,–,99,24.2,–,–
3.4,–,"CC1CC(C)CC(C)(N)C1 (mixture of isomers) [MRZ 2/616, 1-Amino-1,3,5-trimethylcyclohexane (mixture of diastereomers)]",33.2,38.7,10.4,33.2,9.94,–,much more potent in this regard than previously reported for NMDA receptors
1.3,16,"CC1(C)CC(C)(C)CC(C)(N2CCCC2)C1 [MRZ 2/705, N-(1,3,3,5,5-pentamethylcyclohexyl)pyrrolidine]",–,–,–,20.8,7.09,–,–
